A value given as a limit tells only on which side of the number the result lay.

In EP2308883A1, “New derivatives of thieno[2,3-b]pyridine and 5,6,7,8 tetrahydrothieno[2,3 b]quinoline in particular useful in the treatment of malaria” (priority 2009, dated 2011) one finds IC50 data, which are given here for 1 compound.

Holding throughout (assay): Species specificity: recombinant tagged GSK-3 orthologue kinase assay
In experiment [1] the target is T1, GSK-3 (Leishmania major, UniProt Q4QE15).
T1 construct: made in house
T1 sequence (Q4QE15 entry or part of it): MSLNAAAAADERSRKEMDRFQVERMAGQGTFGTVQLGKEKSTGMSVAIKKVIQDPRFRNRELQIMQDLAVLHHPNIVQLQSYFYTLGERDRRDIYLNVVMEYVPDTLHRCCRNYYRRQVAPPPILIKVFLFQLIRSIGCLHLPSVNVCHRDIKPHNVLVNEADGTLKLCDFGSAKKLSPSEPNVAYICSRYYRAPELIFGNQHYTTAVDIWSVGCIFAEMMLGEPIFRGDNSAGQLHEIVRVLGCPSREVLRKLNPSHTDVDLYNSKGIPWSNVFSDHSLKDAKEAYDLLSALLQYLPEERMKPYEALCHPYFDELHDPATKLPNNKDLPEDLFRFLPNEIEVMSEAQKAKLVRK
Type of experiment: biochemical, Leishmania majo. An excerpt: (§1) Given the strong conservation of GSK-3 across evolution and the surprising selectivity of the compounds according to the present invention towards PfGSK-3 versus mammalian GSK-3, a selection of 12 GSK-3 orthologues of various species chosen on the "tree of life" analyzed. The species belong to the Apicomplexa (P. falciparum, P. vivax, P. knowlesi and P. berghei (Gardner, M.J. et al. Genome sequence of the human malaria parasite Plasmodium falciparum. Nature 419, 498-511 (2002); Carlton, J.M. et al. Comparative genomics of the neglected human malaria parasite Plasmodium vivax. Nature 455, 799-803 (2008); Pain, A. et al. The genome of the simian and human malaria parasite Plasmodium knowlesi. Nature 455, 799-803 (2008).). Toxoplasma gondii (Qin, C.L., Tang, J. and Kim, K. Cloning and in vitro expression of TPK3, a Toxoplasma gondii homologue of shaggy/glycogen synthase kinase-3 kinases. Mol. Biochem. Parasitol. 93, 273-283 (1998)), Cryptosporidium parvum.
(§2) Following PCR amplification from cDNA libraries or direct synthesis based on databases sequences, the GSK-3 genes were inserted in appropriate expression vectors and recombinant, tagged kinases were expressed, affinity purified and assayed in the presence of up to 10-100µM of each compound of formula (I) according to the present invention and a selection of the PfGSK-3 inhibitors.

The target of experiment [2] is T2, GSK-3 (Plasmodium knowlesi, UniProt A0A679KU36).
T2 sequence (A0A679KU36 1-473): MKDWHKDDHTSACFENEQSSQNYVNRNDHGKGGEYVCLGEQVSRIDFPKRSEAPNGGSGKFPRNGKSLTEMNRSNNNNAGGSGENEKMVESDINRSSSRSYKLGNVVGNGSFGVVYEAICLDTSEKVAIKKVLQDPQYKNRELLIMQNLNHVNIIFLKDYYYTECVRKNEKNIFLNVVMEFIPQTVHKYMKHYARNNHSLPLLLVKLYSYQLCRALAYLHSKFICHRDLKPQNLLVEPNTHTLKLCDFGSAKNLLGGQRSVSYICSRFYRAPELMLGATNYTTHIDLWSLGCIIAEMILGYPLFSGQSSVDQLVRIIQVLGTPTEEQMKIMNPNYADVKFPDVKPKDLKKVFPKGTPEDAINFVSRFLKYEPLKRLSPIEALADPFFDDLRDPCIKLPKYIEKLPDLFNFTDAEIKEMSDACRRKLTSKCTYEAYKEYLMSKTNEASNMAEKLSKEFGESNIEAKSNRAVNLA
Type of experiment: biochemical. As to conditions: read-out: IC50 Plasmodium knowlesi; calculated from dose-response curves.

The target in experiment [3] is T3, GSK-3 (Plasmodium falciparum, UniProt O77344).
T3 construct: made in house
T3 sequence (O77344 entry or part of it): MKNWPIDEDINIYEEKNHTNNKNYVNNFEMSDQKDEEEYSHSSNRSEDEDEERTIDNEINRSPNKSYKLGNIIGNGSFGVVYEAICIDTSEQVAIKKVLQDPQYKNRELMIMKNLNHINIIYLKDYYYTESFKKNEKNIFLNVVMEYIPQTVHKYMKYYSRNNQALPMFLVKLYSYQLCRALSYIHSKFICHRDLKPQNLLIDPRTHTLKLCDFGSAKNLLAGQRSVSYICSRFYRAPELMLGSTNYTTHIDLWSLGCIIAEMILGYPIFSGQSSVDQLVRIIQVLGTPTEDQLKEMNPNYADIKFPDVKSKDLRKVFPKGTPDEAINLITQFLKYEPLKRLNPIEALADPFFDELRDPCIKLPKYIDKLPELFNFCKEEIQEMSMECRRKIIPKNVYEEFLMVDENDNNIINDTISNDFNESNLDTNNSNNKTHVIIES
Type of experiment: biochemical.
Excerpt: as §1, §2

In experiment [4] the target is T4, GSK-3 α (Homo sapiens, UniProt P49840).
T4 construct: made in house
T4 sequence (P49840 whole entry): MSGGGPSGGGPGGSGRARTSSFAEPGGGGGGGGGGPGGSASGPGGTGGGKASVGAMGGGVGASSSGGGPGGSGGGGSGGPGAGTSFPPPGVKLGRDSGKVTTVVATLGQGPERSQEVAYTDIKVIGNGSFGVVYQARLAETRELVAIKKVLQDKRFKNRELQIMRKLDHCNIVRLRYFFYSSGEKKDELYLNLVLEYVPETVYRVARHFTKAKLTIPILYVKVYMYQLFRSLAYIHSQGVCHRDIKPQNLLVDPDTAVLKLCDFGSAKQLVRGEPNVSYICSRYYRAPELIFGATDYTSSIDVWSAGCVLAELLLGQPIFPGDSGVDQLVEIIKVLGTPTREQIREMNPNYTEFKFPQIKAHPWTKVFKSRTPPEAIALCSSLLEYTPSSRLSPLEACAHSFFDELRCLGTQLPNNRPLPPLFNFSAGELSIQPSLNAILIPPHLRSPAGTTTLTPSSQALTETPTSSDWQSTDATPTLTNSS
In kind it is biochemical. As to conditions: calculated from dose-response curves; -(100) taken as no inhibition at 100.
Excerpt: as §1, §2

The target of experiment [5] is GSK-3 α/β. Type of experiment: biochemical. As to conditions: calculated from dose-response curves; -(100) taken as no inhibition at 100; read-out: IC50 Sus scrofa (GSK-3 α/β).
Excerpt: as §1, §2

Experiment [6] deals with T5, GSK-3 (Dictyostelium discoideum, UniProt P51136).
T5 construct: made in house
T5 sequence (P51136 whole entry): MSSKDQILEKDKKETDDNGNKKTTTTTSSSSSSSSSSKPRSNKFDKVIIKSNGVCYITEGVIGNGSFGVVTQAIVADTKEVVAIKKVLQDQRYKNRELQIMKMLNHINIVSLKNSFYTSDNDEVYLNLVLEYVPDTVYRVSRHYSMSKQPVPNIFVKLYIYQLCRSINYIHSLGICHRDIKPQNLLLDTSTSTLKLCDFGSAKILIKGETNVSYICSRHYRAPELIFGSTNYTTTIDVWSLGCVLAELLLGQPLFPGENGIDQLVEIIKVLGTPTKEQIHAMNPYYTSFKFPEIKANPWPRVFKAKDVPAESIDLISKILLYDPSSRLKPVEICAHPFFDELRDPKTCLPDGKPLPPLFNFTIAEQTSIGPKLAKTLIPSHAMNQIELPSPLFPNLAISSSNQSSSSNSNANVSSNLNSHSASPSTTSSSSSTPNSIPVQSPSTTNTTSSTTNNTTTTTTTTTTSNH
Type of experiment: biochemical.
Excerpt: as §1, §2

The target in experiment [7] is T6, GSK-3 (Leishmania donovani, UniProt A6N857).
T6 sequence (A6N857 1-355): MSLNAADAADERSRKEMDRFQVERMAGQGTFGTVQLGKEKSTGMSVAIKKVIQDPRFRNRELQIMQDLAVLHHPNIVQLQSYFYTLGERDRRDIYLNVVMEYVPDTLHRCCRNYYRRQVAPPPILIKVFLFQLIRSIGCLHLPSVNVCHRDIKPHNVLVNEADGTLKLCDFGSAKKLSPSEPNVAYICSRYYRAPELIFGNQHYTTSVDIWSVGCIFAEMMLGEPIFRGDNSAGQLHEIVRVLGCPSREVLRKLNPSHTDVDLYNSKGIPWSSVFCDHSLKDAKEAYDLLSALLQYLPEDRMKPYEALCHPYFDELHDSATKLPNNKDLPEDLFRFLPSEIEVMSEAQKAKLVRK
Type of experiment: biochemical. As to conditions: read-out: IC50 Leishmania donovani; calculated from dose-response curves.

Experiment [8] deals with T7, GSK-3 (Trypanosoma cruzi, UniProt Q4E1X0).
T7 sequence (Q4E1X0 1-353): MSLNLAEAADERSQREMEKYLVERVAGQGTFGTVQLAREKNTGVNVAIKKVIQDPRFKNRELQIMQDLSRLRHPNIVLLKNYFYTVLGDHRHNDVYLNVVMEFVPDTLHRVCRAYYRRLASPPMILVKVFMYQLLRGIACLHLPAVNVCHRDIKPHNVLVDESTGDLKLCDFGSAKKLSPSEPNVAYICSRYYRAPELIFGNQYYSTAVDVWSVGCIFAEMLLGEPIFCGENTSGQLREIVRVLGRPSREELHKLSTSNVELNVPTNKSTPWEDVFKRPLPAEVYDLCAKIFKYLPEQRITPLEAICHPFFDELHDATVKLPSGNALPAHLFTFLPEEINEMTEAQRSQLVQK
Type of experiment: biochemical. Particulars: read-out: IC50 Trypanopsoma cruzi; calculated from dose-response curves; -(100) taken as no inhibition at 100.

The target in experiment [9] is T8, GSK-3 (Cryptosporidium parvum, UniProt A3FQN0).
T8 sequence (A3FQN0 1-433): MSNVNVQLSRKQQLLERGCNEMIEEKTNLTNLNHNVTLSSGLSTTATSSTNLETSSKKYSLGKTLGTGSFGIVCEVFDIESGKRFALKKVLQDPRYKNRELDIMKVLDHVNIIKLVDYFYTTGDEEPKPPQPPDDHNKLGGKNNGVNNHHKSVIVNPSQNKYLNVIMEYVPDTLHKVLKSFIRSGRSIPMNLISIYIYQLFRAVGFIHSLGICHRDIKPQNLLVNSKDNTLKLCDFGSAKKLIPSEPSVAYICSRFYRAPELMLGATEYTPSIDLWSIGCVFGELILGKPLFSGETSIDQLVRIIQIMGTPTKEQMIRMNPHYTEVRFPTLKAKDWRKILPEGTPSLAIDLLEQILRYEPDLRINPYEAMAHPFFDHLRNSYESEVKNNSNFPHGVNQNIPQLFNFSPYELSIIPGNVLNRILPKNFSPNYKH
In kind it is biochemical.

The target in experiment [10] is T9, GSK-3 (Toxoplasma gondii, UniProt O44002).
T9 sequence (O44002 1-394): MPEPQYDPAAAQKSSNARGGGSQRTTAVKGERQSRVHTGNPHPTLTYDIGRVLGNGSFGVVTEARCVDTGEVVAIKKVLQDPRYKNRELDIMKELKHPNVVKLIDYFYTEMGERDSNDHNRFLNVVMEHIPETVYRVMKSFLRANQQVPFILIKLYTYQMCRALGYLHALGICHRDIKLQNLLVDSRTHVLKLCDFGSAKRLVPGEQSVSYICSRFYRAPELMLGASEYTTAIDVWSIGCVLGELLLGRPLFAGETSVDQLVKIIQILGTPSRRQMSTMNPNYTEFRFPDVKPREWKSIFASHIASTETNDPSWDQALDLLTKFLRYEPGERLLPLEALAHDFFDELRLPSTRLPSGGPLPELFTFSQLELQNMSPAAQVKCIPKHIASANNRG
Type of experiment: biochemical, Toxaplasma grondii.

Consider `N#Cc1c(N)nc2sc(C(=O)c3ccc(Cl)cc3)c(N)c2c1-c1ccccc1I` [Compound 1, 3,6-diamino-2-(4-chlorobenzoyl)-4-(2-iodophenyl)thieno[2,3-b]pyridine-5-carbonitrile], for which the IC50 in [1] was over 100 µM; in experiment [2], 15.5 µM; in experiment [3], 1.9 µM; in experiment [4], over 100 µM; in experiment [5], over 100 µM; in experiment [6], over 100 µM. Further, the IC50 is 80 µM in experiment [7], over 100 µM in experiment [8], over 100 µM in experiment [9] and over 100 µM in experiment [10].
